# Values of other authors, collected in US4127532A, “Novel heptapeptides, intermediates therefor, and compositions and methods employing said heptapeptides” (priority 1977, dated 1978).
# Tests used:
# [1] = tested on: partially purified brain opiate receptor sites
# [2] = injected directly into the brain of the rat
substance,measurement,setting,value
H-Tyr-Gly-Gly-Phe-Met-OH [methionine enkephalin],binding to partially purified brain opiate receptor sites,[1],binds stereo-specifically
same,activity in bioassays for opiate activity,opiate activity,very active
same,analgesic activity,[2],weak analgesic agent of short duration
